# Measured values reported in patent US20080058272A1, “Nonamer Peptides for Cancer Treatment” (priority 2006, published 2008).
# Test system: PBMC of melanoma patients
# Assay: Flow cytometry with HLA-A2/FAPα peptide multimers after in vitro stimulation
# Type: cell-based, human
# Experimental: The human HLA-A*0201-positive cell lines T2, a TAP-deficient T cell leukemia/B cell line hybrid and JY, a B-LCL were cultured in RPMI 1640 supplemented with 10% heat inactivated FCS. After informed consent peripheral blood lymphocytes (PBLs) were collected from HLA-A2-positive patients with advanced malignant melanoma. PBLs from HLA-A2-positive healthy individuals were used as controls. PBLs were isolated using Lymphoprep separation (Axis-Shield PoC AS, Oslo, Norway) according to the manufacturer's instructions and used directly or frozen in FCS with 10% DMSO. PBL were cultured in RPMI/10% human AB serum. Dendritic cells (DCs) were generated from PBMC by adherence on culture dishes at 37° C. for 60 minutes in RPMI enriched with 10% human AB serum. […]
# After peptide-specific stimulation with FAPα peptides or with FAPα mRNA transfected DC, generated as described previously (Fassnacht et al. 2005) PBLs were stained with HLA-A2/FAPα peptide FITC-labeled multimers (a kind gift of Jorgen Scholler, Dako, Glostrup, Denmark) in PBS/0.1% BSA/FCS for 30 min in the dark, followed by staining with anti-CD8-PE (Dako, Glostrup, Denmark) for 30 min at 4° C. in the dark. Samples were analyzed on BD FACS Canto (Becton Dickinson, Heidelberg, Germany) using WinMDi or FCS Express V3.
sequence,measurement,setting,value
GLFKCGIAV (listed as Homo sapiens) [FAPα^639-647],detection of HLA-A2/FAPα^639-647 specific T cells,after in vitro stimulation with FAPα peptide-loaded dendritic cells,able to detect
same,detection of HLA-A2/FAPα^639-647 specific T cells,after stimulation with DCs transfected with FAPα mRNA,can be detected
